Laboratory results published in patent US20100048727A1, “PERFLUOROKETONE COMPOUNDS AND USES THEREOF” (priority 2007, published 2010).

Columns and labels:
human GIVA cPLA2 = target: T1, human GIVA cPLA2 (Homo sapiens, UniProt P47712); experiment: GIVA cPLA2 specific mixed micelle assay; type: biochemical; conditions: mean and standard error; for Average percent inhibition GIVA cPLA2: 0.091 mole fraction, n = 3
T1 sequence (P47712 1-749): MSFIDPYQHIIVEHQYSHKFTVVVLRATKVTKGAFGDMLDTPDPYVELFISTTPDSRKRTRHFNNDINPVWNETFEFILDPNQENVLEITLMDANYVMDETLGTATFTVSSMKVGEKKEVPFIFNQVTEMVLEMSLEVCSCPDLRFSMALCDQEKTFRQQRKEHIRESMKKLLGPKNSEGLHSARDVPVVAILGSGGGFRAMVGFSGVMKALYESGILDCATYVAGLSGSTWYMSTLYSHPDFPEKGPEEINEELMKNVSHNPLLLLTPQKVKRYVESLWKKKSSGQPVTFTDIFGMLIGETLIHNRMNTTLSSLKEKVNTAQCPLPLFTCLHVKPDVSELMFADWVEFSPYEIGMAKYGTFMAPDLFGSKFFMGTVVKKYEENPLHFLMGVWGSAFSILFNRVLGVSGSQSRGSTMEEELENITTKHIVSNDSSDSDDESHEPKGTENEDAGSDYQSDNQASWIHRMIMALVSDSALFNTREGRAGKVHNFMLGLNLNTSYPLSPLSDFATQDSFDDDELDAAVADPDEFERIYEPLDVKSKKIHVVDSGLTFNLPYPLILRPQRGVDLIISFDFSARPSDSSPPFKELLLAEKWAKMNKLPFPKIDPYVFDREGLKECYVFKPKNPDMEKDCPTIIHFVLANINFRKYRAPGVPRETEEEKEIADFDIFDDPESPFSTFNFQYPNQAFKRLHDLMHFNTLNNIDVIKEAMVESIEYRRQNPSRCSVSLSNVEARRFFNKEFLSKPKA
Method: (§1) Inhibition of phospholipase A2 by perfluoroketone compounds. […] (2002) J. Med. Chem. 45: 2891-2893; Kokotos, G. et al. (2004). J. Med. Chem. 47: 3615-3628). The standard GVIA iPLA2 activity assay utilizes DPPC/Triton™ X-100 mixed micelles at a ratio of 1:4 as previously described (Stephens D. et al. (2006). J. Med. Chem., 49: 2821-2828). GV sPLA2 activity was measured in an assay similar to the assays for GIVA cPLA2 and GVIA iPLA2.

GV sPLA2 = target: T2, GV sPLA2 (Homo sapiens, UniProt P39877); experiment: GV sPLA2 activity assay (release of [14C]-palmitic acid from mixed micelles); type: biochemical; conditions: mean and standard error; for Average percent inhibition GV sPLA2: 0.091 mole fraction, n = 3
T2 sequence (P39877 21-138): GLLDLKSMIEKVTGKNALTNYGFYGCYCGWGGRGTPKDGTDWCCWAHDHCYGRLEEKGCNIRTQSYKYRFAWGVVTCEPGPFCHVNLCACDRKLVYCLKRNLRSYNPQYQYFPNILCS
Method: as §1

GVIA iPLA2 = target: T3, GVIA iPLA2 (Homo sapiens, UniProt O60733); experiment: standard GVIA iPLA2 activity assay (DPPC/Triton X-100 mixed micelles); type: biochemical; conditions: mean and standard error; for Average percent inhibition GVIA iPLA2: 0.091 mole fraction, n = 3; for inhibition at 0.091 mole fraction: n = 3, read-out: Average percent inhibition GVIA iPLA2
T3 sequence (O60733 1-806): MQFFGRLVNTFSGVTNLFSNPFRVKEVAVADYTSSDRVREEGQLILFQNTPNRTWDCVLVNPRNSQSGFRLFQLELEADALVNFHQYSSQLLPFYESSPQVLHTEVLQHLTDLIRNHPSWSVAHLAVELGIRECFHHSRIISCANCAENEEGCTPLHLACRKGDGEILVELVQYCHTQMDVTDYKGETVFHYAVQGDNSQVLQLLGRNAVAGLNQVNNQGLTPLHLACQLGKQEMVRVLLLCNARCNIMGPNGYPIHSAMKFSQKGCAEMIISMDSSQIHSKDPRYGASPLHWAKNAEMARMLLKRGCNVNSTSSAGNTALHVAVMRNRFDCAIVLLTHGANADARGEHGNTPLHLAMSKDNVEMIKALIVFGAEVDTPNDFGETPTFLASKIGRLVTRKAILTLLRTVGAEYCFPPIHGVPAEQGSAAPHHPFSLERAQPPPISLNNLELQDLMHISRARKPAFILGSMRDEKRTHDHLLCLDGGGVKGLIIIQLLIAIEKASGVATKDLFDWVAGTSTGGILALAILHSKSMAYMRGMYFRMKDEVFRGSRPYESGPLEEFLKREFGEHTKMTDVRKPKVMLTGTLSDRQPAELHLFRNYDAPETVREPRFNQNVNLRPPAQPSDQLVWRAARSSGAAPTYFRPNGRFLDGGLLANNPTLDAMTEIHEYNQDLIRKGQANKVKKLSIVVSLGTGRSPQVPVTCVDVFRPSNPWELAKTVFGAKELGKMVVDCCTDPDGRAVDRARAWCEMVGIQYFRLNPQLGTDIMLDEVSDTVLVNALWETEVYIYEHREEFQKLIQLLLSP
Method: as §1

EAE-induced SJL/J mice = experiment: Clinical course of EAE in SJL/J mice treated with fluoroketone compounds; type: in vivo

Row | Structure (SMILES) | Average percent inhibition GIVA cPLA2 (human GIVA cPLA2) [%] | Average percent inhibition GV sPLA2 (GV sPLA2) [%] | Average percent inhibition GVIA iPLA2 (GVIA iPLA2) [%] | inhibition at 0.091 mole fraction (GVIA iPLA2) [%] | melting point [°C] | inhibition at 0.091 mole fraction (human GIVA cPLA2; n = 3, read-out: Average percent inhibition GIVA cPLA2) [%] | inhibition at 0.091 mole fraction (GV sPLA2; n = 3, read-out: Average percent inhibition GV sPLA2) [%] | severity and progression of the disease (EAE) (EAE-induced SJL/J mice; delayed treatment from day 11 after immunization, 2 weeks, i.p., vs vehicle) | maximum clinical disability score (EAE-induced SJL/J mice; treatment before onset of symptoms, daily for 3 weeks from day 6, course until day 40, 5-point scale)
1 | CCCCCCOc1ccc(CCC(=O)C(F)(F)F)cc1 [FKGK1, 1,1,1-Trifluoro-4-(4-hexyloxy-phenyl)-2-butanone] | 91 ± 2 | 82 ± 8 | 85 ± 4 |  |  |  |  |  | 
2 | CCCCCCCCCCOc1ccc(CCC(=O)C(F)(F)F)cc1 [FKGK3, 1,1,1-Trifluoro-4-(4-decyloxy-phenyl)-2-butanone] | 96 ± 2 | 80 ± 6 | 94 ± 8 |  |  |  |  |  | 
3 | CCCCCCCCCCOc1ccc(CCCCC(=O)C(F)(F)F)cc1 [FKGK4, 1,1,1-Trifluoro-6-(4-decyloxy-phenyl)-2-hexanone] | 95 ± 2 | 84 ± 7 |  | 94 ± 8 |  |  |  |  | 
4 | CCCCCCCCCCCCCCC(F)C(=O)C(F)(F)F (stereo not drawn) [FKGK8, 1,1,1,3-Tetrafluoro-2-heptadecanone] | 94 ± 2 | 86 ± 10 | 93 ± 4 |  |  |  |  |  | 

Now from value to molecule, other results behind:

Row | Average percent inhibition GIVA cPLA2 (human GIVA cPLA2) [%] | Average percent inhibition GV sPLA2 (GV sPLA2) [%] | Average percent inhibition GVIA iPLA2 (GVIA iPLA2) [%] | inhibition at 0.091 mole fraction (GVIA iPLA2) [%] | melting point [°C] | inhibition at 0.091 mole fraction (human GIVA cPLA2; n = 3, read-out: Average percent inhibition GIVA cPLA2) [%] | inhibition at 0.091 mole fraction (GV sPLA2; n = 3, read-out: Average percent inhibition GV sPLA2) [%] | Structure (SMILES) | severity and progression of the disease (EAE) (EAE-induced SJL/J mice; delayed treatment from day 11 after immunization, 2 weeks, i.p., vs vehicle) | maximum clinical disability score (EAE-induced SJL/J mice; treatment before onset of symptoms, daily for 3 weeks from day 6, course until day 40, 5-point scale)
5 | 92 ± 3 | 86 ± 2 | 91 ± 4 |  |  |  |  | CCCCCCOc1ccc(CCCCC(=O)C(F)(F)F)cc1 [FKGK2, 1,1,1-Trifluoro-6-(4hexyloxy-phenyl)-2-hexanone] | did not show any significant improvement | around 0.5 grade
6 | 88 ± 1 | 49 ± 12 | 71 ± 14 |  | 71 to 72 |  |  | O=C(CCc1ccc(OCc2ccccc2)cc1)C(F)(F)F [FKGK5, 1,1,1-Trifluoro-4-(4-benzyloxy-phenyl)-2-butanone] |  | 
7 |  |  |  | 49 ± 12 |  | 27 ± 3 | 59 ± 12 | O=C(C(F)(F)F)C(F)(F)CCCc1ccccc1 [FKGK7, 1,1,1,3,3-Pentafluoro-6-phenyl-hexan-2-one] |  | 
8 | 56 ± 4 | 46 ± 8 | 98 ± 5 |  |  |  |  | O=C(CCCCCc1ccccc1)C(F)(F)C(F)(F)F [FKGK12, 1,1,1,2,2-Pentafluoro-8-phenyl-3-octanone] |  | 
9 | 65 ± 12 | 75 ± 10 | 98 ± 4 |  |  |  |  | O=C(CCCCCCc1ccccc1)C(F)(F)C(F)(F)F [FKGK13, 1,1,1,2,2-Pentafluoro-9-phenyl-3-nonanone] |  | 
10 | 73 ± 4 | 86 ± 4 | 95 ± 5 |  |  |  |  | CCCCCCOc1ccc(CCC(=O)C(F)(F)C(F)(F)F)cc1 [FKGK14, 1,1,1,2,2-Pentafluoro-5-(4-hexyloxy-phenyl)-3-pentanone] |  | 
